Key:
[1] = target: LIM domain kinase 2 (Homo sapiens, UniProt P53671); experiment: Inhibition of human recombinant LIMK2 expressed in baculovirus-Sf9 system by scintillation counting; format: cell-based
[2] = test system: PTM; details: Sus scrofa, at 10 nM
Description: Inhibition of LIMK2 in pig PTM cells assessed as inhibition of cofilin-phosphorylation at 10 nM by Western blot

[3] = test system: Mus musculus; experiment: Inhibition of dexamethasone-induced ocular hypertension in C57BL/6J Tyr c-Brd x 129S5/SvEvBrD hybrid mouse assessed as reduction of intraocular pressure at 3 ug after 2 hrs administered as cosolvent/HPMC based formulation; format: functional, Eye
[4] = target: Rho-associated protein kinase 1 (Homo sapiens, UniProt Q13464); experiment: Inhibition of human ROCK1 expressed in baculovirus system
[5] = target: LIM domain kinase 1 (Homo sapiens, UniProt P53667); experiment: Inhibition of LIMK1
[6] = target: Rho-associated protein kinase 2 (Homo sapiens, UniProt O75116); experiment: Inhibition of human ROCK2
[7] = test system: Mus musculus; experiment: Inhibition of dexamethasone-induced ocular hypertension in C57BL/6J Tyr c-Brd x 129S5/SvEvBrD hybrid mouse assessed as reduction of intraocular pressure at 5 ug after 1 hr administered as xanthan gum formulation; format: functional, Eye
[8] = organism: Homo sapiens; experiment: Selectivity ratio of IC50 for human LIMK2 to IC50 for human ROCK2
[9] = organism: Homo sapiens; experiment: Selectivity ratio of IC50 for human LIMK2 to IC50 for human ROCK1
[10] = Increase in outflow facility in pig eye at 100 nM by eye-perfusion assay; format: functional, Sus scrofa
[11] = Increase in outflow facility in pig eye at 10 nM by eye-perfusion assay; format: functional, Sus scrofa
[12] = test system: Mus musculus; experiment: Inhibition of dexamethasone-induced ocular hypertension in C57BL/6J Tyr c-Brd x 129S5/SvEvBrD hybrid mouse assessed as reduction of intraocular pressure after 2 hrs administered as cosolvent/HPMC based formulation; format: functional, organism-based; details: Eye

Sequence of LIM domain kinase 1 (P53667 whole entry, the tested form may be a part): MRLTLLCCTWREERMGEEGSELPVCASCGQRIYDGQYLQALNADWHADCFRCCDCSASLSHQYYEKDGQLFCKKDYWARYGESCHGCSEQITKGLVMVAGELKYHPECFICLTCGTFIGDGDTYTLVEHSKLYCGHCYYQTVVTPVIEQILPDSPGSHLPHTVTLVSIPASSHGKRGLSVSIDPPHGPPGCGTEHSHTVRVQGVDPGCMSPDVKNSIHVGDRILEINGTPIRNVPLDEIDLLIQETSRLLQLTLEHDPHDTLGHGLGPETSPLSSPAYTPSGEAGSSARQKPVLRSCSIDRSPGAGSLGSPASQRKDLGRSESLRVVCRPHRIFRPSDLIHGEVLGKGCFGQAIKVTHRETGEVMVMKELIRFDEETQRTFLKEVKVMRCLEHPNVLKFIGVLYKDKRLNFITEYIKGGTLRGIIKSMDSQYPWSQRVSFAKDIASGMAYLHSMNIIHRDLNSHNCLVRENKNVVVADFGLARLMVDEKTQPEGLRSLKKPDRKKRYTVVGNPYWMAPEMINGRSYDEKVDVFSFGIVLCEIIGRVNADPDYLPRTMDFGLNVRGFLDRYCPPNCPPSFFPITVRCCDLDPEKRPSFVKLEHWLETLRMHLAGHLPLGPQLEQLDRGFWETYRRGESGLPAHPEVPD
Sequence of Rho-associated protein kinase 1 (Q13464 whole entry, the tested form may be a part): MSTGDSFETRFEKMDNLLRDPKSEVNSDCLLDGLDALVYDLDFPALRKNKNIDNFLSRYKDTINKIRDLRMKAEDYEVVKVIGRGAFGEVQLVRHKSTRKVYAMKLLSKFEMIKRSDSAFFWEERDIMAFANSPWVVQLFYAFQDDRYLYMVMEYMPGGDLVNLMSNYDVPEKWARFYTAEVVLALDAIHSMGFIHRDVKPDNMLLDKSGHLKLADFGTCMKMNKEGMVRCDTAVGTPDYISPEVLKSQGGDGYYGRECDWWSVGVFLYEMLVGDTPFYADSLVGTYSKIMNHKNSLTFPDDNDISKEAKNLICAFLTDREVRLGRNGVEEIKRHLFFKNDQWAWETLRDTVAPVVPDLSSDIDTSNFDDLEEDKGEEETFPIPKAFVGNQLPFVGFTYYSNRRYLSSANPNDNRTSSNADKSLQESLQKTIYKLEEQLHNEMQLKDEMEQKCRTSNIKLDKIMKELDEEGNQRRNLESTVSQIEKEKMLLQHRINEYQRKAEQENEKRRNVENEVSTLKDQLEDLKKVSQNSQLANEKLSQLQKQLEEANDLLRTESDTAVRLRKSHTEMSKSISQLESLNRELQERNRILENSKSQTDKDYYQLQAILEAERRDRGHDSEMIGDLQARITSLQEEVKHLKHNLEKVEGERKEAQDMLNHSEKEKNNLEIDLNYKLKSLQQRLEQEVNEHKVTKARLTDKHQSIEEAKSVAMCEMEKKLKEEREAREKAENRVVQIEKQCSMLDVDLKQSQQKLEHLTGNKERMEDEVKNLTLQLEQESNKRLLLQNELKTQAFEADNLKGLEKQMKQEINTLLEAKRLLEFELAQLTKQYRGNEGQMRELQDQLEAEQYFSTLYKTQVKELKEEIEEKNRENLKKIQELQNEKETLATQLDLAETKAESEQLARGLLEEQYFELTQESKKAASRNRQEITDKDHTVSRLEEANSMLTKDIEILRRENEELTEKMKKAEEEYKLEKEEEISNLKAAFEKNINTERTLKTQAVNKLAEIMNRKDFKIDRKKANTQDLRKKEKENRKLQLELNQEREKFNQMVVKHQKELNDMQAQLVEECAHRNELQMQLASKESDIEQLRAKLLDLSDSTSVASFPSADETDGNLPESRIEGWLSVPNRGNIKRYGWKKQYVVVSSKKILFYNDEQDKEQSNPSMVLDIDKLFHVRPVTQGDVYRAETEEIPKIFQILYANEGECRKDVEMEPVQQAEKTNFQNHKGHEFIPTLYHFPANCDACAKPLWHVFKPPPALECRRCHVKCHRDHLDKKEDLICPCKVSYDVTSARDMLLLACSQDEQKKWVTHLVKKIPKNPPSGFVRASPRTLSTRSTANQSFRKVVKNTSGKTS
Sequence of Rho-associated protein kinase 2 (O75116 whole entry): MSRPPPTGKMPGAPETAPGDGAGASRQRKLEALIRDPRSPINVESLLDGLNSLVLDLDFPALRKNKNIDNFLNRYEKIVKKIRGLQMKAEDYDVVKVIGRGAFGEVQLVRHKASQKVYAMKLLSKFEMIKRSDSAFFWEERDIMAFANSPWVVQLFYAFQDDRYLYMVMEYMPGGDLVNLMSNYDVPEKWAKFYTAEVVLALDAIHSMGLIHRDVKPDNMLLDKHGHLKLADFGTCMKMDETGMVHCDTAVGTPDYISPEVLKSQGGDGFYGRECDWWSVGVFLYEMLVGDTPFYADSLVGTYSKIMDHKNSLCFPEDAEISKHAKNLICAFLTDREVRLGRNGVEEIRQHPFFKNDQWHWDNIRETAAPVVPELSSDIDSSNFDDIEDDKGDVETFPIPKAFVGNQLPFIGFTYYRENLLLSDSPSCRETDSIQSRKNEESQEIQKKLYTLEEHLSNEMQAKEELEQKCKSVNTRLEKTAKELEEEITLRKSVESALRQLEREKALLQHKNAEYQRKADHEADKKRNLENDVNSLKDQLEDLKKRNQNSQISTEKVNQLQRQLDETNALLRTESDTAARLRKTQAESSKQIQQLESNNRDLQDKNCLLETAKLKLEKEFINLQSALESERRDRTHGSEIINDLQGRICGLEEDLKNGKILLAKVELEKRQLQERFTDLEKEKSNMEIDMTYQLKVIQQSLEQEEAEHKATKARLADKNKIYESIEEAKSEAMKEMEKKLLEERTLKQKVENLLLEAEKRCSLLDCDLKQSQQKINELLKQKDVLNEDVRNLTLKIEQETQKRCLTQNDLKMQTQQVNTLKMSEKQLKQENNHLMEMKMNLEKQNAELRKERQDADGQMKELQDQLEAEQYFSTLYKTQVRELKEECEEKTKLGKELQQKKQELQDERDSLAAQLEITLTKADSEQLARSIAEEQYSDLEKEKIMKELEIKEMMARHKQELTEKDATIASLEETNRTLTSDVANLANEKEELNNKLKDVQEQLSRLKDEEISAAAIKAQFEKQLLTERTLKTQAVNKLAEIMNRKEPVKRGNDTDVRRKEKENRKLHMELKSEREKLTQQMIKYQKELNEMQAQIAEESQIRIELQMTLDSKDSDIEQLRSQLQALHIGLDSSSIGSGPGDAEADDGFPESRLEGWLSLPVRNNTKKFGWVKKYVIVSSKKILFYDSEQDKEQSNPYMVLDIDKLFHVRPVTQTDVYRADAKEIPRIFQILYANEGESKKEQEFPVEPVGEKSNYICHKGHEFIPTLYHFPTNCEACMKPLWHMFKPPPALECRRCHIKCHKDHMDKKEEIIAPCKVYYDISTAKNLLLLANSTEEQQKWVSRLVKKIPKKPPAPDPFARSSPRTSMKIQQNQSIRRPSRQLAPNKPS
Sequence of LIM domain kinase 2 (P53671 whole entry, the tested form may be a part): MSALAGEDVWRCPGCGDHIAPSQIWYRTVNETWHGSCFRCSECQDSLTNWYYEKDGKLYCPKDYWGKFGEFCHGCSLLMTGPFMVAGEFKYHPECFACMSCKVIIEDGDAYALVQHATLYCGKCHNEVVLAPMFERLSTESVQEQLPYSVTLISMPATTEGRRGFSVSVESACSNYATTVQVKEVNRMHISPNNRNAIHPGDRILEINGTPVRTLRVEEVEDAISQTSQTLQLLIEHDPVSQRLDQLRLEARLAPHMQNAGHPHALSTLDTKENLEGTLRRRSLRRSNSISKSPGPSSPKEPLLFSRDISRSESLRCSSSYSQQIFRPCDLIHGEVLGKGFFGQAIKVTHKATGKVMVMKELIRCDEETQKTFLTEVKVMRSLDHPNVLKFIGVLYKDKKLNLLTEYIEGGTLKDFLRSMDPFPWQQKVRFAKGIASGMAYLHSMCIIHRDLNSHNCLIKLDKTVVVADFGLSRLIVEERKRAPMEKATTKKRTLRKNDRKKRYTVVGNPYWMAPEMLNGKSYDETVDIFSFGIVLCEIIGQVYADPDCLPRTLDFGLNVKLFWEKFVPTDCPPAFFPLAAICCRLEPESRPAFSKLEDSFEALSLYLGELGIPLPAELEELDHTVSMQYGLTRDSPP

Row | IC50 [1] [nM] | Compound | inhibition [2] [%] | also measured
1 | 8.1 | CC1CN(c2ncnc3[nH]ccc23)CCN1/C(=N/C#N)Nc1cccc(Br)c1 (racemic) |  | 
2 | 3 | Cc1c[nH]c2ncnc(N3CCN(C(=O)Nc4cccc(C(=O)NCCO)c4)[C@@H](C)C3)c12 | 0 | 
3 |  | CC(C)(C)NC[C@H](O)COc1nsnc1N1CCOCC1 [TIMOLOL] |  | Activity [3]: -5.2 mmHg
4 | 1500 | COc1ccc(NC(=O)C2CCN(c3ncnc4[nH]cc(C)c34)CC2)cc1 |  | 
5 | 0.8 | Cc1c[nH]c2ncnc(N3CCN(C(=Nc4cccc(C(=O)NCCO)c4)NC#N)[C@@H](C)C3)c12 |  | 
6 |  | Cc1c[nH]c2ncnc(N3CCN(/C(=N/C#N)Nc4cccc(C(=O)NCCO)c4)[C@@H](C)C3)c12 | 9 | 
7 | 1.6 | Cc1c[nH]c2ncnc(N3CCN(/C(=N/C#N)Nc4cccc(Cl)c4)[C@@H](C)C3)c12 | 49 | 
8 | 11500 | Cc1ccccc1NC(=O)C1CCN(c2ncnc3[nH]cc(C)c23)CC1 |  | 
9 | 5.5 | Cc1c[nH]c2ncnc(N3CCN(C(=O)Nc4cccc(C(=O)NC(C)C)c4)[C@@H](C)C3)c12 | 0 | 
10 | 1.2 | C[C@H]1CN(c2ncnc3[nH]cc(Cl)c23)CCN1/C(=N/C#N)Nc1cccc(Br)c1 |  | 
11 | 0.9 | Cc1c[nH]c2ncnc(N3CCN(/C(=N\C#N)Nc4cccc(Br)c4)[C@@H](C)C3)c12 |  | IC50 [4]: 260 nM; IC50 [5]: 0.5 nM; IC50 [6]: 2700 nM
12 | 2.9 | Cc1c[nH]c2ncnc(N3CCN(C(=Nc4cccc(S(=O)(=O)NCCO)c4)NC#N)[C@@H](C)C3)c12 |  | 
13 | 38 | Cc1c[nH]c2ncnc(N3CCN(C(=O)Nc4cccc(Br)c4)CC3)c12 |  | 
14 | 2.3 | Cc1c[nH]c2ncnc(N3CCN(C(=O)Nc4cccc(Cl)c4)[C@@H](C)C3)c12 | 0 | 
15 | 520 | COc1cccc(NC(=O)C2CCN(c3ncnc4[nH]cc(C)c34)CC2)c1 |  | 
16 | 3 | Cc1c[nH]c2ncnc(N3CCN(C(=O)Nc4cccc(C(=O)NC(CO)CO)c4)[C@@H](C)C3)c12 | 27 | 
17 | 64 | Cc1c[nH]c2ncnc(N3CCC(C(=O)Nc4cccc(Oc5ccccc5)c4)CC3)c12 |  | 
18 | 3.5 | Cc1c[nH]c2ncnc(N3CCN(C(=Nc4cccc(C(=O)NC(C)C)c4)NC#N)[C@@H](C)C3)c12 |  | 
19 | 3.9 | Cc1c[nH]c2ncnc(N3C[C@H](C)N(C(=Nc4cccc(Br)c4)NC#N)C[C@H]3C)c12 |  | 
20 | 11 | Cc1c[nH]c2ncnc(N3CCN(/C(=N/C#N)Nc4cccc(Br)c4)CC3)c12 |  | 
21 | 650 | Cc1cccc(NC(=O)C2CCN(c3ncnc4[nH]cc(C)c34)CC2)c1 |  | 
22 | 92 | Cc1cccc(NC(=O)N2CCN(c3ncnc4[nH]cc(C)c34)CC2)c1 |  | 
23 | 3.4 | Cc1c[nH]c2ncnc(N3CCN(/C(=N/C#N)Nc4cccc(C(=O)NCCN(C)C)c4)[C@@H](C)C3)c12 | 0 | 

Row | IC50 [1] [nM] | Compound | inhibition [2] [%] | also measured
24 |  | Cc1c[nH]c2ncnc(N3CCN(/C(=N/C#N)Nc4cccc(C(C)(C)C)c4)[C@@H](C)C3)c12 | 10 | 
25 | 800 | Cc1c[nH]c2ncnc(N3CCC(C(=O)Nc4ccccc4)CC3)c12 |  | 
26 |  | Cc1c[nH]c2ncnc(N3CCN(/C(=N/C#N)Nc4cccc(Br)c4)[C@@H](C)C3)c12 | 50 | Activity [7]: 3.7 mmHg; Ratio IC50 [8]: > 900; Ratio IC50 [9]: > 100; Activity [10]: 30%
27 | 1.9 | Cc1c[nH]c2ncnc(N3CCN(/C(=N/C#N)Nc4cccc(C(F)(F)F)c4)[C@@H](C)C3)c12 | 12 | 
28 | 4.2 | Cc1cc2c(N3CCN(/C(=N/C#N)Nc4cccc(Br)c4)[C@@H](C)C3)ncnc2[nH]1 |  | 
29 |  | C[C@@H](N)c1ccc(C(=O)Nc2ccnc3[nH]ccc23)cc1 [Y-39983] |  | Activity [11]: 28%
30 | 140 | COc1cccc(NC(=O)N2CCN(c3ncnc4[nH]cc(C)c34)CC2)c1 |  | 
31 | 1.1 | Cc1c[nH]c2ncnc(N3CCN(C(=Nc4cccc(C(C)(C)C)c4)NC#N)[C@@H](C)C3)c12 |  | 
32 | 133 | Cc1c[nH]c2ncnc(N3C[C@@H](C)N(C(=O)Nc4cccc(Br)c4)[C@@H](C)C3)c12 |  | 
33 | 1300 | Cc1ccc(NC(=O)C2CCN(c3ncnc4[nH]cc(C)c34)CC2)cc1 |  | 
34 | 300 | Cc1c[nH]c2ncnc(N3CCC(C(=O)Nc4cccc(Br)c4)CC3)c12 |  | 
35 | 3.9 | Cc1c[nH]c2ncnc(N3CCN(C(=O)Nc4cccc(Br)c4)[C@@H](C)C3)c12 |  | 
36 | 6.8 | Cc1c[nH]c2ncnc(N3CCN(/C(=N/S(C)(=O)=O)Nc4cccc(Br)c4)[C@@H](C)C3)c12 | 48 | 
37 | 1.8 | Cc1c[nH]c2ncnc(N3CCN(/C(=N/C#N)Nc4cccc(F)c4)[C@@H](C)C3)c12 | 39 | 
38 | 76 | Cc1c[nH]c2ncnc(N3CC4CC3CN4C(=Nc3cccc(Br)c3)NC#N)c12 (stereo not given) |  | 
39 |  | Cc1c[nH]c2ncnc(N3CCN(/C(=N/C#N)Nc4cccc(S(=O)(=O)NCCO)c4)[C@@H](C)C3)c12 | 22 | 
40 | 1.7 | Cc1c[nH]c2ncnc(N3CCN(/C(=N/C#N)Nc4cccc(S(=O)(=O)NC(C)C)c4)[C@@H](C)C3)c12 | 0 | 
41 |  | Cc1c[nH]c2ncnc(N3CCN(/C(=N/C#N)Nc4cccc(C(=O)NC(C)C)c4)[C@@H](C)C3)c12 | 0 | 
42 | 4.2 | Cc1c[nH]c2ncnc(N3CCN(/C(=N/C#N)Nc4cccc(Br)c4)[C@@H](C(C)C)C3)c12 |  | 
43 | > 1000 | C[C@H]1CN(c2nc(Cl)nc3[nH]ccc23)CCN1C(=Nc1cccc(Br)c1)NC#N |  | 
44 | 1.5 | Cc1c[nH]c2ncnc(N3CCN(/C(=N/C#N)Nc4ccc(F)c(Br)c4)[C@@H](C)C3)c12 | 63 | Ratio IC50 [8]: > 900; Ratio IC50 [9]: > 100; IC50 [4]: 310 nM; IC50 [5]: 3.7 nM; IC50 [6]: 2200 nM
45 | 37 | Cc1c[nH]c2ncnc(N3CCN(C(=O)Nc4cccc(Br)c4)[C@H](C)C3)c12 |  | 

Row | Compound | IC50 [1] [nM] | inhibition [2] [%] | also measured
46 | Cc1c[nH]c2ncnc(N3CCN(C(=O)Nc4ccc(F)c(Br)c4)[C@@H](C)C3)c12 | 3.2 | 51 | Activity [7]: 3.6 mmHg; Ratio IC50 [8]: 88; Ratio IC50 [9]: 16; IC50 [4]: 51 nM; IC50 [5]: 6.6 nM; IC50 [6]: 280 nM
47 | Cc1c[nH]c2ncnc(N3CCN(C(=O)Nc4cccc(OC(=O)N(C)C)c4)[C@@H](C)C3)c12 | 1.2 | 61 | Activity [12]: Dose-dependent effect; Activity [7]: 3.6 mmHg; Ratio IC50 [8]: > 900; Ratio IC50 [9]: > 100; IC50 [4]: 490 nM; IC50 [5]: 3.2 nM; Activity [3]: -3.2 mmHg; Activity [10]: 30%; IC50 [6]: 1100 nM
48 | Cc1c[nH]c2ncnc(N3CC4CCC(C3)N4C(=O)Nc3cccc(Br)c3)c12 | 16 |  | 
49 | Cc1c[nH]c2ncnc(N3CCN(/C(=N/C#N)Nc4cccc(C#N)c4)[C@@H](C)C3)c12 | 1.2 | 18 | 

Source: ChEMBL document CHEMBL1154624, “Novel class of LIM-kinase 2 inhibitors for the treatment of ocular hypertension and associated glaucoma” (J Med Chem, 2009)
